According to US20260285850A1, “SUBSTITUTED OXAZOLIDINONES AND IMIDAZOLINONES AS HERBICIDES” (FMC CORPORATION, priority 2023, published 2026):

Columns and labels:
Type in all cases: in vivo
[1] = tested on: horseweed (Erigeron canadensis); assay: Test A postemergence application, visual injury rating 0-100; conditions: 10 days
Procedure, shortened: (§1)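 Compounds formulated in a non-phytotoxic solvent with surfactant are sprayed onto soil of freshly planted loam-sand pots ahead of emergence, or onto emerged plants 2-10 cm tall. After a 10-day greenhouse period, each species is scored visually for injury against untreated controls.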

[2] = tested on: barnyardgrass (Echinochloa crus-galli); assay: as above; conditions: 10 days
Procedure, shortened: as §1

[3] = tested on: palmer (palmer amaranth, palmer pigweed, Amaranthus palmeri); assay: as above; conditions: 10 days
Procedure, shortened: as §1

[4] = tested on: galium (catchweed bedstraw, Galium aparine); assay: as above; conditions: 10 days
Procedure, shortened: as §1

[5] = tested on: green foxtail (Setaria viridis); assay: as above; conditions: 10 days
Procedure, shortened: as §1

[6] = tested on: oat, wild (wild oat, Avena fatua); assay: as above; conditions: 10 days
Procedure, shortened: as §1

[7] = tested on: soybean (Glycine max); assay: as above; conditions: 10 days
Procedure, shortened: as §1

[8] = tested on: ryegrass, Italian (italian ryegrass, Lolium multiflorum); assay: as above; conditions: 10 days
Procedure, shortened: as §1

[9] = tested on: corn (Zea mays); assay: as above; conditions: 10 days
Procedure, shortened: as §1

[10] = tested on: kochia (Bassia scoparia); assay: as above; conditions: 10 days
Procedure, shortened: as §1

[11] = tested on: ragweed (common ragweed, Ambrosia artemisiifolia); assay: as above; conditions: 10 days
Procedure, shortened: as §1

[12] = tested on: blackgrass (Alopecurus myosuroides); assay: as above; conditions: 10 days
Procedure, shortened: as §1

[13] = tested on: wheat (Triticum aestivum); assay: as above; conditions: 10 days
Procedure, shortened: as §1

[14] = tested on: sedge, umbrella (small-flower umbrella sedge, Cyperus difformis); assay: Test B flooded paddy test, visual plant response rating 0-100; conditions: 250 g ai/ha, Flood, applied to paddy water, evaluated after 13 days
Procedure, shortened: (§2)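 Plants were grown to the 2-leaf stage, then pots were flooded to 3 cm above the soil and test compounds were applied directly into the paddy water. Water depth was held there throughout; after 13 days in a greenhouse, injury was scored visually against untreated controls.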

[15] = tested on: ducksalad (Heteranthera limosa); assay: as above; conditions: 250 g ai/ha, Flood, applied to paddy water, evaluated after 13 days
Procedure, shortened: as §2

[16] = tested on: barnyardgrass (Echinochloa crusgalli); assay: as above; conditions: 250 g ai/ha, Flood, applied to paddy water, evaluated after 13 days
Procedure, shortened: as §2

[17] = tested on: rice (Oryza sativa); assay: as above; conditions: 250 g ai/ha, Flood, applied to paddy water, evaluated after 13 days
Procedure, shortened: as §2

[18] = tested on: barnyardgrass (Echinochloa crus-galli); assay: Test A preemergence soil spray, visual injury rating 0-100; conditions: 10 days, 0 = no effect, 100 = complete control
Procedure, shortened: as §1

[19] = tested on: palmer (palmer amaranth, palmer pigweed, Amaranthus palmeri); assay: as above; conditions: 10 days, 0 = no effect, 100 = complete control
Procedure, shortened: as §1

[20] = tested on: green foxtail (Setaria viridis); assay: as above; conditions: 10 days, 0 = no effect, 100 = complete control
Procedure, shortened: as §1

[21] = tested on: oat, wild (wild oat, Avena fatua); assay: as above; conditions: 10 days, 0 = no effect, 100 = complete control
Procedure, shortened: as §1

[22] = tested on: soybean (Glycine max); assay: as above; conditions: 10 days, 0 = no effect, 100 = complete control
Procedure, shortened: as §1

[23] = tested on: ryegrass, Italian (italian ryegrass, Lolium multiflorum); assay: as above; conditions: 10 days, 0 = no effect, 100 = complete control
Procedure, shortened: as §1

[24] = tested on: corn (Zea mays); assay: as above; conditions: 10 days, 0 = no effect, 100 = complete control
Procedure, shortened: as §1

[25] = tested on: kochia (Bassia scoparia); assay: as above; conditions: 10 days, 0 = no effect, 100 = complete control
Procedure, shortened: as §1

[26] = tested on: ragweed (common ragweed, Ambrosia artemisiifolia); assay: as above; conditions: 10 days, 0 = no effect, 100 = complete control
Procedure, shortened: as §1

[27] = tested on: blackgrass (Alopecurus myosuroides); assay: as above; conditions: 10 days, 0 = no effect, 100 = complete control
Procedure, shortened: as §1

[28] = tested on: wheat (Triticum aestivum); assay: as above; conditions: 10 days, 0 = no effect, 100 = complete control
Procedure, shortened: as §1

[29] = 31 g ai/ha, postemergence, 0 = no effect, 100 = complete control
[30] = Postemergence, 125 g ai/ha, 0 is no effect, 100 is complete control

CCOC(=O)C1=CCC(NC(=O)C2(C)CN(c3cc(F)cc(F)c3)C(=O)O2)C1 (stereo not shown) [Compound 15]
Horseweed plant response rating (0-100) [1, 29]: 0
Horseweed plant response rating (0 to 100 scale) [1, 30]: 0
Barnyardgrass plant response rating (0-100) [2, 29]: 100
Barnyardgrass plant response rating (0 to 100 scale) [2, 30]: 100
Amaranth, Palmer plant response rating (0-100) [3, 29]: 50
Amaranth, Palmer / Pigweed, Palmer plant response rating (0 to 100 scale) [3, 30]: 90
Galium plant response rating (0-100) [4, 29]: 80
Galium plant response rating (0 to 100 scale) [4, 30]: 90
Foxtail, Green plant response rating (0-100) [5, 29]: 90
Foxtail, Green plant response rating (0 to 100 scale) [5, 30]: 90
Oat, Wild plant response rating (0-100) [6, 29]: 90
Oat, Wild plant response rating (0 to 100 scale) [6, 30]: 90
Soybean plant response rating (0-100) [7, 29]: 60
Soybean plant response rating (0 to 100 scale) [7, 30]: 70
Ryegrass, Italian plant response rating (0-100) [8, 29]: 80
Ryegrass, Italian plant response rating (0 to 100 scale) [8, 30]: 90
Corn plant response rating (0-100) [9, 29]: 100
Corn plant response rating (0 to 100 scale) [9, 30]: 100
Kochia plant response rating (0-100) [10, 29]: 70
Kochia plant response rating (0 to 100 scale) [10, 30]: 70
Ragweed plant response rating (0-100) [11, 29]: 40
Ragweed plant response rating (0 to 100 scale) [11, 30]: 50
Blackgrass plant response rating (0-100) [12, 29]: 70
Blackgrass plant response rating (0 to 100 scale) [12, 30]: 100
Wheat plant response rating (0-100) [13, 29]: 90
Wheat plant response rating (0 to 100 scale) [13, 30]: 90
Plant response rating, Sedge, Umbrella (0 to 100 scale, 0 is no effect and 100 is complete control) [14]: 70
Plant response rating, Ducksalad (0 to 100 scale, 0 is no effect and 100 is complete control) [15]: 80
Plant response rating, Barnyardgrass (0 to 100 scale, 0 is no effect and 100 is complete control) [16]: 60
Plant response rating, Rice (0 to 100 scale, 0 is no effect and 100 is complete control) [17]: 65
Barnyardgrass plant response rating (0-100) ([18]; 31 g ai/ha): 0
Barnyardgrass plant response rating (0 to 100 scale) ([18]; 125 g ai/ha): 100
Amaranth, Palmer plant response rating (0-100) ([19]; 31 g ai/ha): 50
Amaranth, Palmer plant response rating (0 to 100 scale) ([19]; 125 g ai/ha): 100
Foxtail, Green plant response rating (0-100) ([20]; 31 g ai/ha): 30
Foxtail, Green plant response rating (0 to 100 scale) ([20]; 125 g ai/ha): 100
Oat, Wild plant response rating (0-100) ([21]; 31 g ai/ha): 0
Oat, Wild plant response rating (0 to 100 scale) ([21]; 125 g ai/ha): 50
Soybean plant response rating (0-100) ([22]; 31 g ai/ha): 0
Soybean plant response rating (0 to 100 scale) ([22]; 125 g ai/ha): 30
Ryegrass, Italian plant response rating (0-100) ([23]; 31 g ai/ha): 80
Ryegrass, Italian plant response rating (0 to 100 scale) ([23]; 125 g ai/ha): 90
Corn plant response rating (0-100) ([24]; 31 g ai/ha): 20
Corn plant response rating (0 to 100 scale) ([24]; 125 g ai/ha): 60
Kochia plant response rating (0-100) ([25]; 31 g ai/ha): 0
Kochia plant response rating (0 to 100 scale) ([25]; 125 g ai/ha): 90
Ragweed plant response rating (0-100) ([26]; 31 g ai/ha): 0
Ragweed plant response rating (0 to 100 scale) ([26]; 125 g ai/ha): 0
Blackgrass plant response rating (0-100) ([27]; 31 g ai/ha): 0
Blackgrass plant response rating (0 to 100 scale) ([27]; 125 g ai/ha): 40
Wheat plant response rating (0-100) ([28]; 31 g ai/ha): 50
Wheat plant response rating (0 to 100 scale) ([28]; 125 g ai/ha): 90
